Measured values published in PubChem BioAssay (NCI).
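Grown in 96-well plates, cells were treated for 48 hours with each compound at five concentrations. Insufficient inhibition: endpoint recorded as highest concentration tested. Definition used: TGI = concentration required for complete inhibition of growth.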

How the values were obtained:
Experiment in all cases: NCI anticancer screen, dose series, 48 h
786-0 renal = tested on: 786-0 renal
A498 renal = tested on: A498 renal
A549 NSCLC = tested on: A549 NSCLC
CAKI-1 renal = tested on: CAKI-1 renal
DU-145 prostate = tested on: DU-145 prostate
HCT-116 colon = tested on: HCT-116 colon
HOP-92 NSCLC = tested on: HOP-92 NSCLC
HS 578T breast = tested on: HS 578T breast
K-562 leukemia = tested on: K-562 leukemia
LOX IMVI melanoma = tested on: LOX IMVI melanoma
MCF7 breast = tested on: MCF7 breast
MDA-MB-435 = tested on: MDA-MB-435
MOLT-4 leukemia = tested on: MOLT-4 leukemia
NCI/ADR-RES ovarian = tested on: NCI/ADR-RES ovarian
PC-3 prostate = tested on: PC-3 prostate
RPMI-8226 leukemia = tested on: RPMI-8226 leukemia
SN12C renal = tested on: SN12C renal
SR leukemia = tested on: SR leukemia
UACC-257 melanoma = tested on: UACC-257 melanoma
UO-31 renal = tested on: UO-31 renal

SMILES	TGI (786-0 renal) [µM]	TGI (A498 renal) [µM]	TGI (A549 NSCLC) [µM]	TGI (CAKI-1 renal) [µM]	TGI (DU-145 prostate) [µM]	TGI (HCT-116 colon) [µM]	TGI (HOP-92 NSCLC) [µM]	TGI (HS 578T breast) [µM]	TGI (K-562 leukemia) [µM]	TGI (LOX IMVI melanoma) [µM]	TGI (MCF7 breast) [µM]	TGI (MDA-MB-435) [µM]	TGI (MOLT-4 leukemia) [µM]	TGI (NCI/ADR-RES ovarian) [µM]	TGI (PC-3 prostate) [µM]	TGI (RPMI-8226 leukemia) [µM]	TGI (SN12C renal) [µM]	TGI (SR leukemia) [µM]	TGI (UACC-257 melanoma) [µM]	TGI (UO-31 renal) [µM]
C=CCC(CC=O)(C(=O)OCC)C(=O)OCC	> 100	> 100	> 100	> 100	> 100	> 100	> 100	> 100	> 100	> 100	> 100	> 100	> 100	> 100	> 100	> 100	> 100	> 100	> 100	> 100
O=C1C(Cl)=C(N2C(=O)CCCC2=O)C(=O)c2ccccc21	33	33.4	54.7	27.2	30.2	32	9.29	> 100	6.54	42.4	52.1	44.9	55.6	95.3	41.7	40.9	46.2	57.1	38.7	23
Cn1cc(-c2cnc(-c3cn(C)c4ccccc34)cn2)c2ccccc21	29.9	> 41.4	> 100	> 100	> 58.5	> 100	> 100	33.5	> 52.5	35.9	> 27.1	7.38	> 100	40.7	> 100	> 44.4	> 100	> 100	> 100	> 65
CSCCC(N)P(C)(=O)O (stereo not given)	> 100	> 100	> 100	> 100	> 100	> 100	> 100	> 100	> 100	> 100	> 100	> 100	> 100	> 100	> 100	> 100	> 100	> 100	> 100	> 100
O=c1[nH]c(=O)n(C2OC(CO)C(O)C2O)c2ccsc12 (stereo not given)	> 100	> 100	> 100	> 100	> 100	> 100	> 100	> 100	> 100	> 100	> 100	> 100	> 100	> 100	> 100	> 100	> 100	> 100	> 100	> 100
CN1C(=O)N/C(=C\c2ccc(S(=O)(=O)N/N=C\C(O)C(O)C(O)CO)cc2)C1=O (stereo not given)	> 100	> 100	> 100	> 100	> 100	> 100	> 100	> 100	> 100	> 100	> 100	> 100	> 100	> 100	> 100	> 100	> 100	> 100	> 100	> 100
Fc1ccc(OCc2nc3cc(C(F)(F)F)ccc3nc2-c2ccccc2)cc1	> 100	> 100	> 100	> 100	> 100	> 100	> 100	> 100	> 59	> 100	> 100	> 100	> 67.6	> 100	> 100	> 100	> 100	> 100	> 100	> 100
CCOC(=O)C1=C(C)OC(=O)[C@@]2(OC)C=C(Cl)[C@@]12C	> 100	> 100	> 100	> 100	> 100	> 100	> 100	> 100	> 100	> 100	> 100	> 100	> 100	> 100	> 100	> 100	> 100	> 100	> 100	> 100
O=C(O)[C@@H]1CCC(=O)N1C(c1ccc2c(c1)OCO2)c1ccc2c(c1)OCO2	> 100	> 100	> 100	> 100	> 100	> 100	> 100	> 100	> 100	> 100	> 100	> 100	> 100	> 100	> 100	> 100	> 100	> 100	> 100	> 100
N#Cc1c(NCCc2ccc(F)cc2)c2ccccc2n2c1nc1ccccc12	17.6	53.1	> 100	29.1	98.1	> 100	19.8	32	> 100	> 100	> 100	> 100	> 100	59.2	82.7	> 100	> 100	> 100	> 100	39.5
CC(=O)OC[C@@H]1[C@H]2CC[C@]3(C)[C@@H](OC(C)=O)CC[C@H]3[C@@H]2CC[C@H]1C1(C)SCCS1	> 25	> 25	> 25	> 25	> 25	> 25	> 25	> 25	> 25	> 25	> 25	> 25	> 25	> 25	> 25	> 25	> 25	> 25	> 25	> 25
O=C(O)C1=C(C(=O)O)N(c2ccncc2)C(c2ccco2)=CC1c1ccccc1[N+](=O)[O-] (stereo not given)	4.06	28.1	35.9	34.6	24.9	3.4	22.1	62	> 100	4.02	10.1	> 56	14.5	> 69.9	27.9	> 24.6	29.1	5.68	5.28	20.6
CCCCCC(=O)Nc1nc[nH]c1C(N)=O	> 100	> 100	> 100	> 100	> 100	> 100	> 100	> 100	> 100	> 100	> 100	> 100	> 100	> 100	> 100	> 100	> 100	> 100	> 100	> 100
